The numbers were not newly measured in patent US9901098B2, “Methods for plant protection” (TDA Research, Inc, priority 2015, dated 2018), which cites them from elsewhere.

For data set [1], the system named is human workers.
The subject of data set [2] is microbes.

With `[O][Cl+][O-]` [ClO2, chlorine dioxide], the “permissible exposure level (PEL) in air” value in data set [1] was 0.1 ppm. In data set [2] (aqueous solutions), the “concentration that effectively kills microbes” value is at most 1 ppm. Also, in data set [2] (solutions containing 1 ppm ClO2 or less), the “time required to kill microbes” value is given as “as short as one minute”.
